Columns and labels:
[1] = system: Human Myeloma, Human Lymphoma, Solid Human tumor and Jeko-1 tumor cell lines; assay: CellTiter-Glo in vitro cell proliferation assay, Example 8, whole panel; type: cell-based; details: 72 hours; cell lines of Table 14
Method: In this Example, in vitro cell proliferation assays were performed using: (1) Human Myeloma tumor cell lines; (2) Human Lymphoma tumor cell lines; (3) Solid Human tumor cell lines; and (4) Parental, Lenalidomide resistant and Bortezomib resistant Jeko-1 Mantle cell Lymphoma tumor cell lines. The compounds tested were three diharmaline compounds, namely the 518B562 (or simply 562), 560, and 561 compounds. In addition, a monoharmaline product designated as 518F014 was also tested. This monoharmaline product had the following structure:
Each proliferation assay was carried out as follows. The test cells were plated in growth media using a 384-well microtiter plate at 50 μL volume. The cells were incubated for 24 hours at 37° C. in a humidified incubator. After 24 hours of incubation, the test compounds were added to the test wells in DSMO solvent, at concentrations ranging from 0.0075-100 μM. Control wells received equal volumes of DSMO, without compound. Following drugging, the cells were incubated for 72 hours at 37° C. in a humidified incubator. After this exposure, 100 μL of a 1:1 mixture of sterile water and CellTiter-Glo® reagent (Promega) was added to each well. The plates were then incubated for 60 minutes at room temperature, followed by recording the luminescence value of each well using a luminometer as a measure of cell proliferation.

KHM-1B cells = assay: CellTiter-Glo in vitro cell proliferation assay, Example 8; type: cell-based, Human; details: Human Myeloma, 72 hours, read-out: Mean IC50
In short: (§1)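 72 h continuous exposure, 37 °C, humidified; conc. 0.0075–100 μM (DMSO); CellTiter-Glo luminescence, 60 min RT incubation before read.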

SiHA cells = assay: as above; type: cell-based, Human; details: Homo sapiens, Squamous, 72 hours, read-out: Mean IC50
In short: as §1

KMS-27 cells = assay: as above; type: cell-based, Human; details: KMS-27, Human Myeloma, 72 hours; read-out: Mean IC50
In short: as §1

KMS-34 cells = assay: as above; type: cell-based, Human; details: KMS-34, Human Myeloma, 72 hours; read-out: Mean IC50
In short: as §1

MDA-MB-468 cells = assay: as above; type: cell-based, Human; details: Homo sapiens; MDA-MB-468, Triple Negative Breast, 72 hours; read-out: Mean IC50
In short: as §1

MOLP-8 cells = assay: as above; type: cell-based, Human; details: MOLP-8, Human Myeloma, 72 hours; read-out: Mean IC50
In short: as §1

MM.1s cells = assay: as above; type: cell-based, Human; details: MM1.S; MM.IS, Human Myeloma, 72 hours; read-out: Mean IC50
In short: as §1

A2780 cells = assay: as above; type: cell-based, Human; details: Homo sapiens; A2780, Ovarian, 72 hours; read-out: Mean IC50
In short: as §1

FaDu cells = assay: as above; type: cell-based, Human; details: Homo sapiens, Squamous, 72 hours, read-out: Mean IC50
In short: as §1

L363 cells = assay: as above; type: cell-based, Human; details: L-363; L363, Human Myeloma, 72 hours; read-out: Mean IC50
In short: as §1

A2780CP cells = assay: as above; type: cell-based, Human; details: Homo sapiens, A2780C/P, Ovarian, 72 hours, read-out: Mean IC50
In short: as §1

DOHH-2 cells = assay: as above; type: cell-based, Human; details: Homo sapiens; DOHH-2, Diffuse Large B-Cell Lymphoma, 72 hours; read-out: Mean IC50
In short: as §1

BxPC-3 cells = assay: as above; type: cell-based, Human; details: Homo sapiens; BxPC-3, Pancreatic, 72 hours; read-out: Mean IC50
In short: as §1

A498 cells = assay: as above; type: cell-based, Human; details: Homo sapiens; A498, Renal, 72 hours; read-out: Mean IC50
In short: as §1

KMM-1 cells = assay: as above; type: cell-based, Human; details: KMM-1, Human Myeloma, 72 hours; read-out: Mean IC50
In short: as §1

KMS-11 cells = assay: as above; type: cell-based, Human; details: KMS-11, Human Myeloma, 72 hours; read-out: Mean IC50
In short: as §1

HCC70 cells = assay: as above; type: cell-based, Human; details: Homo sapiens; HCC70, Triple Negative Breast, 72 hours; read-out: Mean IC50
In short: as §1

H1650 (EGFR mut) cells = assay: as above; type: cell-based, Human; details: Homo sapiens, NCI-H1650, Non Small Cell Lung, 72 hours, read-out: Mean IC50
In short: as §1

ASPC-1 cells = assay: as above; type: cell-based, Human; details: Homo sapiens, ASPC1; ASPC-1, Pancreatic, 72 hours; read-out: Mean IC50
In short: as §1

HEC-1a cells = assay: as above; type: cell-based, Human; details: Homo sapiens, Endometrial, 72 hours, read-out: Mean IC50
In short: as §1

MDA-MB-231 cells = assay: as above; type: cell-based, Human; details: Homo sapiens; MDA-MB-231, Triple Negative Breast, 72 hours; read-out: Mean IC50
In short: as §1

JIM1 cells = assay: as above; type: cell-based, Human; details: JIM1, Human Myeloma, 72 hours; read-out: Mean IC50
In short: as §1

H929 cells = assay: as above; type: cell-based, Human; details: NCI-H929; H929, Human Myeloma, 72 hours; read-out: Mean IC50
In short: as §1

OCI-LY3 cells = assay: as above; type: cell-based, Human; details: Homo sapiens; OCI-LY3, Diffuse Large B-Cell Lymphoma, 72 hours; read-out: Mean IC50
In short: as §1

Compound: COc1ccc2c3c([nH]c2c1)C(CC(CC1=NCCc2c1[nH]c1cc(OC)ccc21)c1ccccc1)=NCC3 [compound 560]
- IC50 values compared with the monoharmaline 518F014 compound [1]: significantly lower IC50 values
- IC50 (KHM-1B cells): 7.58 µM
- IC50 (SiHA cells): 11.6 µM
- IC50 (KMS-27 cells): 3.94 µM
- IC50 (KMS-34 cells): 6.67 µM
- IC50 (MDA-MB-468 cells): 3750 nM
- IC50 (MOLP-8 cells): 2890 nM
- IC50 (MM.1s cells): 2260 nM
- IC50 (A2780 cells): 2030 nM
- IC50 (FaDu cells): 2050 nM
- IC50 (L363 cells): 5.27 µM
- IC50 (A2780CP cells): 4.4 µM
- IC50 (DOHH-2 cells): 6.39 µM
- IC50 (BxPC-3 cells): 2620 nM
- IC50 (A498 cells): 3340 nM
- IC50 (KMM-1 cells): 5.3 µM
- IC50 (KMS-11 cells): 4.95 µM
- IC50 (HCC70 cells): 5.94 µM
- IC50 (H1650 (EGFR mut) cells): 2950 nM
- IC50 (ASPC-1 cells): 3620 nM
- IC50 (HEC-1a cells): 5.1 µM
- IC50 (MDA-MB-231 cells): 3890 nM
- IC50 (JIM1 cells): 5.17 µM
- IC50 (H929 cells): 4.3 µM
- IC50 (OCI-LY3 cells): 2870 nM

Compound: COc1ccc2c3c([nH]c2c1)C(CC(CC1=NCCc2c1[nH]c1cc(OC)ccc21)c1ccc(O)c(OC)c1)=NCC3 [compound 562]
- IC50 values compared with the monoharmaline 518F014 compound [1]: significantly lower IC50 values
- IC50 (KHM-1B cells): 3.37 µM
- IC50 (SiHA cells): 5.13 µM
- IC50 (KMS-27 cells): 2.1 µM
- IC50 (KMS-34 cells): 5.45 µM
- IC50 (MDA-MB-468 cells): 2050 nM
- IC50 (MOLP-8 cells): 1380 nM
- IC50 (MM.1s cells): 1660 nM
- IC50 (A2780 cells): 1140 nM
- IC50 (FaDu cells): 1980 nM
- IC50 (L363 cells): 2 µM
- IC50 (A2780CP cells): 2.28 µM
- IC50 (DOHH-2 cells): 2.42 µM
- IC50 (BxPC-3 cells): 1600 nM
- IC50 (A498 cells): 1760 nM
- IC50 (KMM-1 cells): 4.04 µM
- IC50 (KMS-11 cells): 4.93 µM
- IC50 (HCC70 cells): 3.45 µM
- IC50 (H1650 (EGFR mut) cells): 2300 nM
- IC50 (ASPC-1 cells): 2150 nM
- IC50 (HEC-1a cells): 4.75 µM
- IC50 (MDA-MB-231 cells): 1620 nM
- IC50 (JIM1 cells): 3.95 µM
- IC50 (H929 cells): 4.5 µM
- IC50 (OCI-LY3 cells): 2380 nM

Reference: US12129265B2, “Therapeutic agents and uses thereof” (Ankh Life Sciences Limited, priority 2020, dated 2024)
